# From patent US20250339445A1, “Modulators of Orphan Nuclear Receptors for Treating Pancreatitis, Glioblastoma, Sarcopenia and Stroke” (Emory University, priority 2020, published 2025)
# Entries after “also recorded” stand apart in the source; their conditions may differ.
# Experiments:
# [1] = tested on: CD4^+ Th17 cells; experiment: Modulation of Th17 populations in human PBMCs (flow cytometry); format: cell-based; conditions: 10 μM, 3 day assay
# Description: Human peripheral blood mononuclear cells (PBMCs) were isolated from four healthy donors. Four experiments were conducted and analyzed by flow cytometry over 3 day assay. The control group had no drug treatment, a second were treated with 10 μM Compound 1, a third group was stimulated with PHA/IL-2 without treatment, and the fourth group was stimulated with PHA/IL-2 and incubated with 10 μM Compound 1. […] Further, Compound 1 has no effect on Th17 populations in the absence of PHA/IL-2 stimulation.
# [2] = tested on: RORα-regulated genes; experiment: Modulation of RORα-regulated genes in healthy C57BL/6 mice, single injection; format: in vivo
# Description: Healthy C57BL/6 mice were injected i.p. once with 7.5 mg/kg Compound 1 or saline control. Mice were sacrificed at 1, 2, and 7 day time points post-injection. miR-122 and Gpase 6 mRNA levels were determined by qRT-PCR for each time point. MicroRNA levels were normalized to RNU6; plasma miR-122 was normalized to spiked in C. elegans miR-39; and mRNA levels were normalized to HPRT.
# Compound 1 and AntagomiR injections to mice. C57BL/6 male mice, 7-8 weeks old, or Sgp130FC, 9-month-old male mice, were injected i.p. with 7.5 mg/kg Compound 1 dissolved in saline and 3% DMSO. Saline was injected as control. Mice were hydrodynamic tail vain injected with antagomiR-122 or antagomiR-control (negative control) (5 μg/mouse in 1.5 ml saline). Mice were sacrificed according to the legend of the figure describing the experimental results and the livers, white adipose and skeletal muscle tissues were frozen in liquid nitrogen or in OCT embedded frozen blocks, for further RNA and histologic analysis. AntagomiRs were obtained from Sigma Aldrich, see Table 3.
# [3] = Cellular toxicity assay, Huh-7 cells; format: cell-based; conditions: human, compared to cycloheximide (+ control)
# Description: The toxicity of the compounds was assessed in human PBM, CEM (human lymphoblastoid), and Huh-7 cells, as described previously (see Schinazi R. F., Sommadossi J.-P., Saalmann V., Cannon D. L., Xie M.-Y., Hart G. C., Smith G. A. & Hahn E. F. Antimicrob. Agents Chemother. 1990, 34, 1061-67). Cycloheximide was included as positive cytotoxic control, and untreated cells exposed to solvent were included as negative controls. The cytotoxicity IC50 was obtained from the concentration-response curve using the median effective method described previously (see Chou T.-C. & Talalay P. Adv. Enzyme Regul. 1984, 22, 27-55; Belen'kii M. S. & Schinazi R. F. Antiviral Res. 1994, 25, 1-11).
# [4] = tested on: atherogenic diet C57BL/6 mice; experiment: Atherogenic (fibrotic) diet mouse model; format: in vivo
# Description: Male C57BL/6J mice, 7 to 8 weeks old, were housed randomly in standard cages and were fed a HFD, or atherogenic diet (consisting 1% Chol and 0.5% cholic acid, see also Table 6). All mice had free access to water during the experimental period. During the feeding period body weight was monitored every 3 days. In the HFD experiment, after 4 or 6 weeks, the resultant obese mice were treated with antagomiR-122 (5 μg/mouse once a week for 3 weeks), or i.p. injected with Compound 1 (RORα agonist, 7.5 mg/kg twice a week for 3 weeks; or 15 mg/kg 3 times a week for 3 weeks). The obese control (HFD) group was administered only saline with DMSO and antagomiR-control. After 3 weeks of treatment mice were sacrificed and livers were taken for RNA-seq analysis. Livers, white adipose, and skeletal muscle tissues were frozen in liquid nitrogen or in optimum cutting temperature embedded frozen blocks, for further RNA and histologic analysis. In the atherogenic diet experiment mice were treated with 15 mg/kg Compound 1 after 3 weeks with the diet. After 3.5 weeks of treatment, mice were sacrificed, and the livers were frozen in liquid nitrogen or in optimum cutting temperature embedded frozen blocks. Plasma was collected from atherogenic diet-fed mice and saved in −20° C. for ALT and AST analysis using the Reflotron® Analyzer and test-strips (Roche).
# Livers and adipose samples were placed in 4% buffered formaldehyde for 24 hours, followed by 80% ethanol and then embedded in paraffin blocks. Liver and adipose tissues were cut into […], deparaffinized with xylene and hydrated through graded ethanol. For the H&E staining, tissue sections were stained with hematoxylin (Emmonya Biotech Ltd.) and eosin (Leica, Surgipath). Liver macrophages were stained using rat anti-mouse F4/80 antigen (Serotec), followed by anti-Rat HRP (Histofine) and developed with a DAB kit (Zymed). Liver sections were stained for Masson Trichrome (Sigma). Liver CD3+ T cells were stained using Rat anti human-CD3-antibody (Bio-Rad), followed by anti-Rat HRP (Histofine) and developed with AEC (Invitrogen). α-SMA positive cells were stained using mouse anti-Human smooth Muscle Actin antibody (Dako), followed by anti-mouse HRP (Dako) and developed with DAB. The percentage area stained positively per high power field was calculated by ImageJ Software in 5-10 random fields.
# Experimental design: C57BL/6 mice fed for 3 weeks with atherogenic diet (to induce fibrosis) and injected with 15 mg/kg Compound 1 (or saline+DMSO) 3 times a week for 3.5 week (n=8).
# After 3 weeks of treatment mice were sacrificed and livers were taken for RNA-seq analysis. Livers, gonadal white adipose, and skeletal muscle tissues were frozen in liquid nitrogen or in optimum cutting temperature embedded frozen blocks, for further RNA and histologic analysis. In the atherogenic diet experiment mice were treated with 15 mg/kg Compound 1 after 3 weeks with the diet. After 3.5 weeks of treatment, mice were sacrificed, and the livers were frozen in liquid nitrogen or in optimum cutting temperature embedded frozen blocks. Plasma was collected from atherogenic diet-fed mice and stored at −20° C. for ALT and AST analysis using the Reflotron® Analyzer and test-strips (Roche).
# [5] = atherogenic diet, 15 mg/kg 3 times a week for 3.5 weeks
# [6] = atherogenic diet, 3 times weekly for 3.5 weeks
# [7] = liver, atherogenic diet, 15 mg/kg 3 times a week for 3.5 weeks
compound,measurement,setting,value
O=C1Nc2cc(C(=O)N3CCC(Cc4ccccc4)CC3)ccc2Nc2ccccc21 [Compound 1],Th17 total population in the presence of PHA/IL-2 stimulation,[1]; relative to vehicle-control,decreases the CD4^+ Th17 population
same,Total viability of CD4^+ T cells,[1]; with or without PHA/IL-2,no effect
same,"Gpase6 (G6Pase) mRNA, RORα target gene","[2]; 7.5 mg/kg i.p. once, liver, up to 7 days",significantly up-regulated; also recorded: increase
same,miR-18 and miR-126 levels (controls),"[2]; 7.5 mg/kg i.p. once, over 7 days",not affected
same,miR-122 levels in plasma and liver,"[2]; 7.5 mg/kg i.p. once, up to 7 days post-injection",increased
same,Hepatic MIR122 precursors (pri-MIR122 and pre-MIR122),[2]; single administration,increase
same,"Mature MIR122 levels in WAT, muscle and heart tissues",[2]; single administration,increased significantly
same,Three MIR122 target genes in heart tissue,[2]; single administration,significantly down-regulated
same,"AldoA, MIR122 target","[2]; single administration, liver",decrease
same,CC50,[3],10.4 µM
same,Liver vasculature by CD34 staining,[4]; atherogenic diet,no effect
same,NK cells in the livers,[4]; atherogenic diet,significant reduction in NK cells
same,"Biomarkers of inflammation (Tgfb2 and TgfbR2) and fibrosis (Acta1, Col1A1 and Col3A1), liver mRNA",[4]; [5],reducing
same,Mature miR-122 in tissue (liver) and plasma,[4]; [5],increased
same,ALT and AST plasma levels (liver enzymes),"[4]; atherogenic diet, 15 mg/kg 3 times a week for 3.5 weeks, 15 mg/kg",significantly improved; also recorded: reducing significantly
same,Liver fibrosis (Masson Trichrome and αSMA staining),[4]; [6],significant reduction in liver fibrosis
same,"Liver inflammation (H&E, CD3 and F4/80 staining)",[4]; [6],significantly improved liver inflammation; also recorded: improved liver inflammation significantly
same,Immune infiltrate by H&E staining,[4]; [7],decreased immune infiltrate
same,Myeloid infiltrate by F4/80 staining,[4]; [7],decreased levels of myeloid infiltrate
same,T-cell density by CD3 staining,[4]; [7],decreased T-cell density
same,"Reduction of fibrotic area, Masson Trichrome (M.T)","[4]; liver, versus untreated cohort",5 fold
same,"Reduction of fibrotic area, α-SMA","[4]; liver, versus untreated cohort",7 fold
